Measurements: patent US11319324B2, “Pyrazolo-pyrrolo-pyrimidine-dione derivatives as P2X3 inhibitors” (Bayer Aktiengesellschaft, priority 2017, dated 2022)

Assays:
Type in all cases: cell-based
human P2X2/3 receptors = biological target: T1, human P2X2/3 receptors (Homo sapiens, UniProt P56373+Q9UBL9); test: Intracellular calcium measurement, antagonist activity at human P2X2/3 receptors (hP2X23 1321N1), Fluo8; settings: for IC50: column 4); 1321N1 cells, human P2X2/3, Fluo8, agonist ATP at EC50; read-out: 4) hP2X2/3 IC50 [nM] (1321N1); for hP2X23/hP2X3* Selectivity (1321N1): ratio of column 4) hP2X2/3 to column 3) hP2X3, 1321N1
T1 construct: expressed in transfected cells; host or cells: human astrocytoma 1321N1 (1312N1 [sic])
T1 sequence (P56373 1-397): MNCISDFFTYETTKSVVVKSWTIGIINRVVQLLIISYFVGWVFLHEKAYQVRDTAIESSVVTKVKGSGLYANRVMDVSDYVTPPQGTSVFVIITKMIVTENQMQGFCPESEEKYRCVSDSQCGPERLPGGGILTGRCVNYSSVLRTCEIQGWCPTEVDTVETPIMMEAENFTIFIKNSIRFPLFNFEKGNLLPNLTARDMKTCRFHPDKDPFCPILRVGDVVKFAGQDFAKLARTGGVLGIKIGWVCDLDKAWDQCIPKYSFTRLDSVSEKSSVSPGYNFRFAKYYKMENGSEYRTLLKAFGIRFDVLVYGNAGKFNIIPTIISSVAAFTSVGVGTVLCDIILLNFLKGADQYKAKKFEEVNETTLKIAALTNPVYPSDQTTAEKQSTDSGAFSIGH
T1 sequence (Q9UBL9 1-471): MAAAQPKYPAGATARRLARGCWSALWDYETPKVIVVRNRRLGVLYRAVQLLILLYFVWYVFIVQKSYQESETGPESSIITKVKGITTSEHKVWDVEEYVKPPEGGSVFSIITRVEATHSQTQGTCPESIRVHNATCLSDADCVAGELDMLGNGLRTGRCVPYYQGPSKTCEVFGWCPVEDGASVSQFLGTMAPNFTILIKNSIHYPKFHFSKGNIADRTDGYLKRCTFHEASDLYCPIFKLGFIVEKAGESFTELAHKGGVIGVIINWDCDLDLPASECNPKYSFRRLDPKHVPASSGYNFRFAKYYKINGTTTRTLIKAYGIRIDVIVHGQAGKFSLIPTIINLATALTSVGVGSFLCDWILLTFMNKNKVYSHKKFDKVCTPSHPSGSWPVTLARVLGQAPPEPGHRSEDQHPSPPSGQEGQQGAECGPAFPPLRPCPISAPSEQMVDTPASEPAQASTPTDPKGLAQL
Outline: (§1)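 Antagonism was assessed by decrease of the Fluo8 calcium signal after ATP challenge, with ATP dosed at the EC50 of whichever receptor was tested. Stable 1321N1 astrocytoma lines expressed either human P2X3 or both P2X2 and P2X3, and were dye-loaded 60 min before a 10 min compound incubation.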

human P2X3 receptor [1] = biological target: T2, human P2X3 receptor (Homo sapiens, UniProt P56373); test: Intracellular calcium measurement to assess antagonist activity at human P2X3 receptors (hP2X3 CHO), photina luminescence; parameters: expressed in transfected cells; host or cells: Chinese hamster ovary (CHO) cells; settings: column 2), CHO cells, agonist α,β-methylene-ATP at EC50
T2 sequence (P56373 1-397): T1 sequence (P56373 1-397)
Outline: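 Antagonism read as lowered photina luminescence after agonist stimulation in recombinant hP2X3/photina CHO cells. Cells seeded one day earlier (30 °C) and reconstituted with 5 μg/ml coelenterazine in 2 mM Ca-tyrode buffer for 3 h at 37 °C before measurement.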

human P2X3 receptor [2] = biological target: T2, human P2X3 receptor; test: Intracellular calcium measurement to assess antagonist activity at human P2X3 receptors (hP2X3 FLIPR); parameters: expressed in transfected cells; host or cells: human astrocytoma 1321N1 (1312N1 [sic]); settings: head prints (1321N1); read-out: 1) hP2X3 IC50 [nM] (1321N1)
Description: 1) Intracellular Calcium Measurement to Assess Antagonist Activity at Human P2X3 Receptors (hP2X3 FLIPR)
A fluorescent imaging plate reader (FLEX/FLIPR station; Molecular Devices) was used to monitor intracellular calcium levels using the calcium-chelating dye Fluo-4 (Molecular Probes). The excitation and emission wavelengths used to monitor fluorescence were 470-495 nm and 515-575 nm, respectively. The human astrocytoma […] cells expressing purinergic receptors P2X3 (human) were plated at a density of 15,000 cells/well in collagen—coated 384-well plates approximately 20 hours before beginning the assay. […] The dye supernatant was removed and replaced with 45 μl probenecid buffer (Hank's balanced salt solution, 20 mM HEPES, 0.5 mM CaCl2, 0.5 mM MgCl2, 0.1% BSA, 5 mM probenecid, 10 mM D-glucose monohydrate, pH=7.4). The test compounds were added in a volume of 5 μl and allowed to incubate for 30 min at 37° C. The final assay DMSO concentration is 1%. […] The fluorescence was measured for an interval of 90 sec at 2 sec intervals and analyzed based on the increase in peak relative fluorescence units (RFU) compared to the basal fluorescence. Peak fluorescence was used to determine the response to agonist obtained at each concentration of test compound by the following equation: Response=100*(RFU(test compound)−RFU(control))/(RFU(DMSO)−RFU(control))
The Examples were tested in triplicates per plate and mean values were plotted in Excel XLFit to determine IC50 values at the human P2X3 and human P2X2/3 receptors, percentage of maximal inhibition and the Hill coefficients.

human P2X3 receptor [3] = biological target: T2, human P2X3 receptor; test: Intracellular calcium measurement, antagonist activity at human P2X3 receptors (hP2X3 1321N1), Fluo8; parameters: expressed in transfected cells; host or cells: human astrocytoma 1321N1 (1312N1 [sic]); settings: column 3); 1321N1 cells, human P2X3, Fluo8, agonist ATP at EC50
Outline: as §1

**Q.** With `CC[C@@H](C)N1Cc2c(n(CC(=O)Nc3ccc(Cl)cn3)c3cc(C(F)(F)F)nn3c2=O)C1=O` [Example 15] as the compound, how does the IC50 (human P2X2/3 receptors) read?
**A.** The IC50 was 4650 nM.

**Q.** And the “hP2X23/hP2X3* Selectivity (1321N1)” value (human P2X2/3 receptors)?
**A.** The value was 88.

**Q.** What about the IC50 (human P2X3 receptor [1]) of the same compound?
**A.** Its IC50 is 49 nM.

**Q.** And the IC50 (human P2X3 receptor [2])?
**A.** The IC50 was 21 nM.

**Q.** And the IC50 (human P2X3 receptor [3])?
**A.** Its IC50 is 53 nM.

**Q.** How did the IC50 (human P2X2/3 receptors) turn out when `CC[C@H](C)N1Cc2c(n(CC(=O)Nc3ccc(F)cn3)c3cc(C)nn3c2=O)C1=O` [Example 53] was run?
**A.** Its IC50 is greater than 22000 nM.

**Q.** What about the “hP2X23/hP2X3* Selectivity (1321N1)” value (human P2X2/3 receptors) of the same compound?
**A.** Its value is greater than 110.

**Q.** What about the IC50 (human P2X3 receptor [1]) of the same compound?
**A.** Its IC50 is 195 nM.

**Q.** And the IC50 (human P2X3 receptor [2])?
**A.** Its IC50 is 133 nM.

**Q.** And the IC50 (human P2X3 receptor [3])?
**A.** Its IC50 is 200 nM.

**Q.** How did the IC50 (human P2X2/3 receptors) turn out when `CC(C)(C)c1cc2n(CC(=O)Nc3ccc(F)cn3)c3c(c(=O)n2n1)CN(C1CCC1)C3=O` [Example 17] was run?
**A.** Its IC50 is greater than 18100 nM.

**Q.** And the “hP2X23/hP2X3* Selectivity (1321N1)” value (human P2X2/3 receptors)?
**A.** Its value is greater than 345.

**Q.** What about the IC50 (human P2X3 receptor [1]) of the same compound?
**A.** Its IC50 is 72 nM.

**Q.** What about the IC50 (human P2X3 receptor [2]) of the same compound?
**A.** Its IC50 is 31 nM.

**Q.** And the IC50 (human P2X3 receptor [3])?
**A.** Its IC50 is 53 nM.

**Q.** For `CC(C)N1Cc2c(n(CC(=O)Nc3ccccn3)c3cc(C(C)(C)C)nn3c2=O)C1=O` [Example 2], which IC50 (human P2X2/3 receptors) is on record?
**A.** The IC50 was greater than 22000 nM.

**Q.** And the “hP2X23/hP2X3* Selectivity (1321N1)” value (human P2X2/3 receptors)?
**A.** The value was greater than 119.

**Q.** And the IC50 (human P2X3 receptor [1])?
**A.** Its IC50 is 135 nM.

**Q.** And the IC50 (human P2X3 receptor [2])?
**A.** Its IC50 is 219 nM.

**Q.** And the IC50 (human P2X3 receptor [3])?
**A.** Its IC50 is 185 nM.

**Q.** Which IC50 (human P2X3 receptor [2]) does the source give for `CC(C)(C)c1cc2n(CC(=O)Nc3ccc(F)cn3)c3c(c(=O)n2n1)CN(CCOCc1ccccc1)C3=O` [Example 34, 2-{6-[2-(Benzyloxy)ethyl]-2-tert-butyl-5,8-dioxo-5,6,7,8-tetrahydro-4H-pyrazolo[1,5-a]pyrrolo[3,4-d]pyrimidin-4-yl}-N-(5-fluoropyridin-2-yl)acetamide] here?
**A.** The IC50 was 4 nM.

**Q.** Which IC50 (human P2X3 receptor [1]) does the source give for `Cc1ccc(NC(=O)Cn2c3c(c(=O)n4nc(C(C)(C)C)cc24)CN(C2COC2)C3=O)nc1` [Example 47] here?
**A.** Its IC50 is 1100 nM.

**Q.** And the IC50 (human P2X3 receptor [2])?
**A.** Its IC50 is 1220 nM.

**Q.** Which IC50 (human P2X2/3 receptors) does the source give for `COCC(C)N1Cc2c(n(CC(=O)Nc3ccc(F)cn3)c3cc(C(=O)N(C)C)nn3c2=O)C1=O` (racemic) [Example 140, 4-{2-[(5-fluoropyridin-2-yl)amino]-2-oxoethyl}-6-[(±)-1-methoxypropan-2-yl]-N,N-dimethyl-5,8-dioxo-5,6,7,8-tetrahydro-4H-pyrazolo[1,5-a]pyrrolo[3,4-d]pyrimidine-2-carboxamide] here?
**A.** The IC50 was greater than 20900 nM.

**Q.** And the “hP2X23/hP2X3* Selectivity (1321N1)” value (human P2X2/3 receptors)?
**A.** Its value is greater than 183.

**Q.** And the IC50 (human P2X3 receptor [1])?
**A.** Its IC50 is 55 nM.

**Q.** And the IC50 (human P2X3 receptor [2])?
**A.** Its IC50 is 57 nM.

**Q.** And the IC50 (human P2X3 receptor [3])?
**A.** The IC50 was 115 nM.

**Q.** Which IC50 (human P2X2/3 receptors) does the source give for `Cc1ccc(NC(=O)Cn2c3c(c(=O)n4nc(C(C)(C)C)cc24)CN(C(C)C)C3=O)nc1` [Example 4] here?
**A.** Its IC50 is 9600 nM.

**Q.** And the “hP2X23/hP2X3* Selectivity (1321N1)” value (human P2X2/3 receptors)?
**A.** Its value is 54.

**Q.** And the IC50 (human P2X3 receptor [1])?
**A.** The IC50 was 345 nM.

**Q.** And the IC50 (human P2X3 receptor [2])?
**A.** Its IC50 is 147 nM.

**Q.** And the IC50 (human P2X3 receptor [3])?
**A.** The IC50 was 177 nM.

**Q.** What does the source list for `COC[C@H](C)N1Cc2c(n(CC(=O)Nc3ccc(F)cn3)c3cc(C(F)(F)F)nn3c2=O)C1=O` [Example 37]?
**A.** IC50 (human P2X2/3 receptors): > 32000 nM; hP2X23/hP2X3* Selectivity (1321N1) (human P2X2/3 receptors): >160; IC50 (human P2X3 receptor [1]): 135 nM; IC50 (human P2X3 receptor [2]): 82 nM; IC50 (human P2X3 receptor [3]): 200 nM

**Q.** What does the source list for `Cc1ccc(NC(=O)Cn2c3c(c(=O)n4nc(C(F)(F)F)cc24)CN(C(C)C)C3=O)nc1` [Example 30]?
**A.** IC50 (human P2X2/3 receptors): > 21500 nM; hP2X23/hP2X3* Selectivity (1321N1) (human P2X2/3 receptors): >55; IC50 (human P2X3 receptor [1]): 170 nM; IC50 (human P2X3 receptor [2]): 344 nM; IC50 (human P2X3 receptor [3]): 393 nM

**Q.** With `COC[C@@H](C)N1Cc2c(n(CC(=O)Nc3ccc(F)cn3)c3cc(C(C)C)nn3c2=O)C1=O` [Example 44] as the compound, how does the IC50 (human P2X2/3 receptors) read?
**A.** Its IC50 is 8200 nM.

**Q.** And the “hP2X23/hP2X3* Selectivity (1321N1)” value (human P2X2/3 receptors)?
**A.** Its value is 241.

**Q.** And the IC50 (human P2X3 receptor [1])?
**A.** Its IC50 is 39 nM.

**Q.** What about the IC50 (human P2X3 receptor [2]) of the same compound?
**A.** The IC50 was 16 nM.

**Q.** What about the IC50 (human P2X3 receptor [3]) of the same compound?
**A.** The IC50 was 34 nM.

**Q.** With `Cc1cc2n(CC(=O)Nc3ccc(Cl)cn3)c3c(c(=O)n2n1)CN(C(C)C)C3=O` [Example 42] as the compound, how does the IC50 (human P2X3 receptor [2]) read?
**A.** Its IC50 is 35 nM.
